Assay results taken from PubChem BioAssay AID256 (DTP/NCI, 2004).
Inconclusive results and toxic doses are left out.

System: CD2F1 mice, L1210 leukemia ip, survival T/C
Test: NCI In Vivo Anticancer Drug Screen. Data for tumor model L1210 Leukemia (intraperitoneal) in CD2F1 (CDF1) mice
Conditions: higher = longer survival
Procedure, shortened: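 Mice carrying a transplanted tumor received test compound or vehicle alone. The value is the measurement in the treated group divided by that in the vehicle-treated control group.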

[1] = endpoint: mean survival time, dose: 200.0 mg/kg/injection, schedule: Q01DX001 (ip), vehicle: saline with Tween-80
[2] = endpoint: mean survival time, dose: 400.0 mg/kg/injection, schedule: Q01DX001 (ip), vehicle: saline with Tween-80
[3] = endpoint: mean survival time, dose: 100.0 mg/kg/injection, schedule: Q01DX009 (ip), vehicle: saline with Tween-80
[4] = endpoint: mean survival time, dose: 100.0 mg/kg/injection, schedule: Q04DX003 (ip), vehicle: saline with Tween-80
[5] = endpoint: mean survival time, dose: 200.0 mg/kg/injection, schedule: Q01DX009 (ip), vehicle: saline with Tween-80
[6] = endpoint: mean survival time, dose: 200.0 mg/kg/injection, schedule: Q04DX003 (ip), vehicle: saline with Tween-80

Compound: CCOC(=O)/C=C/SCCCC(=O)O
- T/C (endpoint: mean survival time, dose: 100.0 mg/kg/injection, schedule: Q01DX001 (ip), vehicle: saline with Tween-80): 100 % of control
- T/C [1]: 105 % of control
- T/C [2]: 95 % of control

Compound: COC(=O)c1csc(CCN)n1
- T/C (endpoint: mean survival time, dose: 100.0 mg/kg/injection, schedule: Q01DX009 (ip), vehicle: saline): 102 % of control
- T/C (endpoint: mean survival time, dose: 200.0 mg/kg/injection, schedule: Q01DX009 (ip), vehicle: saline): 95 % of control
- T/C (endpoint: mean survival time, dose: 400.0 mg/kg/injection, schedule: Q01DX009 (ip), vehicle: saline): 92 % of control

Compound: NNC(=O)c1cccc[n+]1[O-]
- T/C (endpoint: mean survival time, dose: 12.5 mg/kg/injection, schedule: Q01DX001 (ip), vehicle: water): 98 % of control
- T/C (endpoint: mean survival time, dose: 25.0 mg/kg/injection, schedule: Q01DX001 (ip), vehicle: water): 96 % of control
- T/C (endpoint: mean survival time, dose: 50.0 mg/kg/injection, schedule: Q01DX001 (ip), vehicle: water): 93 % of control
- T/C (endpoint: mean survival time, dose: 100.0 mg/kg/injection, schedule: Q01DX001 (ip), vehicle: water): 102 % of control

Compound: C=CC1CN2CCC1CC2C(O)c1ccnc2ccc(OC)cc12 (configuration not stated)
- T/C (endpoint: mean survival time, dose: 18.75 mg/kg/injection, schedule: Q01DX009 (ip), vehicle: saline with Tween-80): 105 % of control
- T/C (endpoint: mean survival time, dose: 37.5 mg/kg/injection, schedule: Q01DX009 (ip), vehicle: saline with Tween-80): 101 % of control
- T/C (endpoint: mean survival time, dose: 75.0 mg/kg/injection, schedule: Q01DX009 (ip), vehicle: saline with Tween-80): 103 % of control

Compound: c1ccc2c(c1)CC1CCCCN1C2 (configuration not stated)
- T/C (endpoint: mean survival time, dose: 12.5 mg/kg/injection, schedule: Q01DX009 (ip), vehicle: Klucel (hydroxypropylcellulose) (HPC)): 94 % of control
- T/C (endpoint: mean survival time, dose: 12.5 mg/kg/injection, schedule: Q04DX003 (ip), vehicle: saline): 95 % of control
- T/C (endpoint: mean survival time, dose: 25.0 mg/kg/injection, schedule: Q01DX009 (ip), vehicle: Klucel (hydroxypropylcellulose) (HPC)): 100 % of control
- T/C (endpoint: mean survival time, dose: 25.0 mg/kg/injection, schedule: Q04DX003 (ip), vehicle: saline): 93 % of control
- T/C (endpoint: mean survival time, dose: 50.0 mg/kg/injection, schedule: Q01DX009 (ip), vehicle: Klucel (hydroxypropylcellulose) (HPC)): 97 % of control
- T/C (endpoint: mean survival time, dose: 50.0 mg/kg/injection, schedule: Q04DX003 (ip), vehicle: saline): 95 % of control

Compound: CC(C)(C)[Si](C)(C)N1CCCOP1(=O)N(CCCl)CCCl (configuration not stated)
- T/C (endpoint: mean survival time, dose: 15.6 mg/kg/injection, schedule: Q01DX001 (ip), vehicle: distilled water + Tween-80): 98 % of control
- T/C (endpoint: mean survival time, dose: 31.3 mg/kg/injection, schedule: Q01DX001 (ip), vehicle: distilled water + Tween-80): 102 % of control
- T/C (endpoint: mean survival time, dose: 62.5 mg/kg/injection, schedule: Q01DX001 (ip), vehicle: distilled water + Tween-80): 96 % of control
- T/C (endpoint: mean survival time, dose: 125.0 mg/kg/injection, schedule: Q01DX001 (ip), vehicle: distilled water + Tween-80): 108 % of control
- T/C (endpoint: mean survival time, dose: 250.0 mg/kg/injection, schedule: Q01DX001 (ip), vehicle: distilled water + Tween-80): 101 % of control
- T/C (endpoint: mean survival time, dose: 500.0 mg/kg/injection, schedule: Q01DX001 (ip), vehicle: distilled water + Tween-80): 104 % of control

Compound: NC1CCCCC1N.O=C1C=CC(=C(c2ccc(O)cc2)c2ccccc2S(=O)(=O)[O-])C=C1.O=[N+]([O-])[O-].[Pt+4]
- T/C (endpoint: median survival time, dose: 1.56 mg/kg/injection, schedule: Q04DX003 (ip), vehicle: saline): 170 % of control
- T/C (endpoint: median survival time, dose: 3.12 mg/kg/injection, schedule: Q04DX003 (ip), vehicle: saline with Tween-80): 361 % of control
- T/C (endpoint: median survival time, dose: 3.12 mg/kg/injection, schedule: Q04DX003 (ip), vehicle: saline): 353 % of control
- T/C (endpoint: median survival time, dose: 6.25 mg/kg/injection, schedule: Q04DX003 (ip), vehicle: saline with Tween-80): 361 % of control
- T/C (endpoint: median survival time, dose: 6.25 mg/kg/injection, schedule: Q04DX003 (ip), vehicle: saline): 243 % of control
- T/C (endpoint: median survival time, dose: 12.5 mg/kg/injection, schedule: Q04DX003 (ip), vehicle: saline): 365 % of control

Compound: COc1c(C)c2c(c3c1CC(O)O3)C(=O)OC2 (configuration not stated)
- T/C (endpoint: mean survival time, dose: 100.0 mg/kg/injection, schedule: Q04DX002 (ip), vehicle: saline with Tween-80): 112 % of control
- T/C (endpoint: mean survival time, dose: 200.0 mg/kg/injection, schedule: Q04DX002 (ip), vehicle: saline with Tween-80): 103 % of control
- T/C (endpoint: mean survival time, dose: 400.0 mg/kg/injection, schedule: Q04DX002 (ip), vehicle: saline with Tween-80): 106 % of control

Compound: Cc1cc(O)c(C)c(C)c1Cl
- T/C (endpoint: mean survival time, dose: 50.0 mg/kg/injection, schedule: Q01DX009 (ip), vehicle: saline with Tween-80): 102 % of control
- T/C [3]: 104 % of control
- T/C [4]: 94 % of control
- T/C [5]: 91 % of control
- T/C [6]: 98 % of control

Compound: O=C(c1ccccc1)C(Br)C(Br)c1ccccc1 (configuration not stated)
- T/C [3]: 93 % of control
- T/C [4]: 94 % of control
- T/C [1]: 91 % of control
- T/C [5]: 106 % of control
- T/C [6]: 90 % of control
- T/C [2]: 94 % of control
- T/C (endpoint: mean survival time, dose: 400.0 mg/kg/injection, schedule: Q01DX009 (ip), vehicle: saline with Tween-80): 95 % of control
- T/C (endpoint: mean survival time, dose: 400.0 mg/kg/injection, schedule: Q04DX003 (ip), vehicle: saline with Tween-80): 92 % of control
